Data: patent US20180273528A1 (LES LABORATOIRES SERVIER, priority 2015, published 2018)

Target: T1, His-TEV-DYRK1A Kinase domain (aa127-485) (Homo sapiens, UniProt Q13627)
T1 construct: His-TEV-DYRK1A Kinase domain (aa127-485); His tag (N); TEV protease cleavage site (N)
Experiment: Kinase ADP assay (ADP Hunter), DYRK1A kinase domain
Format: biochemical
Details: 20 μM ATP
Protocol: The enzyme reaction was conducted in assay buffer (pH 7.4), containing 15 mM Hepes; 20 mM NaCl; 1 mM EGTA; 10 mM MgCl2; 0.02% Tween20 and 0.1 mg/ml Bovine-y-globulin. Test compounds of the invention were added in reaction buffer in a range of concentrations for 10 minutes at 30° C. in the presence of 20 nM DYRK1A enzyme, 40 μM peptide substrate and 20 μM ATP. Detection reagents (DiscoveRx 90-0083), ADP Hunter Plus Reagent A and then ADP Hunter Plus Reagent B were added. After a following 20 minutes incubation at 30° C., ADP Hunter Plus Stop Solution was added. The fluorescence intensity was measured at 590 nm.

Row | Molecule | IC50
1 | 4-{3-[2-(2,6-dimethoxyphenoxy)ethyl]-3H-imidazo[4,5-b]pyridin-5-yl}pyridine-2,6-diamine [Example 213] | 0.069 µM
2 | Cc1nc2ccc(-c3cc(N)nc(N)c3)nc2n1[C@H](C)COc1ccccc1 (single isomer, unassigned) [Example 104] | 0.045 µM
3 | Cc1nc2ccc(-c3cc(N)nc(N)c3)nc2n1[C@@H](C)COc1ccccc1 (single isomer, unassigned) [Example 105] | 0.092 µM
4 | Cc1nc2ccc(-c3cc(N)nc(N)c3)nc2n1CCCCO [Example 70, 4-[5-(2,6-diaminopyridin-4-yl)-2-methyl-3H-imidazo[4,5-b]pyridin-3-yl]butan-1-ol] | 0.013 µM
5 | Cc1nc2ccc(-c3cc(N)nc(N)c3)nc2n1CC1CCCOC1 (stereo not shown) [Example 76, 4-[2-methyl-3-(tetrahydro-2H-pyran-3-ylmethyl)-3H-imidazo[4,5-b]pyridin-5-yl]pyridine-2,6-diamine] | 0.04 µM
6 | Cc1nc2ccc(-c3cc(N)nc(N)c3)nc2n1CC1CCOCC1 [Example 80, 4-[2-methyl-3-(tetrahydro-2H-pyran-4-ylmethyl)-3H-imidazo[4,5-b]pyridin-5-yl]pyridine-2,6-diamine] | 0.043 µM
7 | Cc1nc2ccc(-c3cc(N)nc(N)c3)nc2n1C(C)Cc1ccco1 (stereo not shown) [Example 82, 4-{3-[1-(furan-2-yl)propan-2-yl]-2-methyl-3H-imidazo[4,5-b]pyridin-5-yl}pyridine-2,6-diamine] | 0.096 µM
8 | Cc1nc2ccc(-c3cc(N)nc(N)c3)nc2n1CCc1cccc(OC(C)C)c1 [Example 87] | 0.017 µM
9 | Cc1nc2ccc(-c3cc(N)nc(N)c3)nc2n1CCC1CCCCC1C (stereo not shown) [Example 102, 4-{2-methyl-3-[2-(2-methylcyclohexyl)ethyl]-3H-imidazo[4,5-b]pyridin-5-yl}pyridine-2,6-diamine] | 0.017 µM
10 | Cc1nc2ccc(-c3cc(N)nc(N)c3)nc2n1C/C=C/c1ccccc1 [Example 111, 4-{2-methyl-3-[(2E)-3-phenylprop-2-en-1-yl]-3H-imidazo[4,5-b]pyridin-5-yl}pyridine-2,6-diamine] | 0.012 µM

Next, values leading:

Row | IC50 | Molecule
11 | 0.031 µM | Cc1nc2ccc(-c3cc(N)nc(N)c3)nc2n1C[C@@H](C)Oc1ccccc1Cl (single isomer, unassigned) [Example 118]
12 | 0.058 µM | Cc1nc2ccc(-c3cc(N)nc(N)c3)nc2n1C[C@@H](C)Oc1ccc(F)cc1 (single isomer, unassigned) [Example 130]
13 | 0.037 µM | COc1ccccc1O[C@H](C)Cn1c(C)nc2ccc(-c3cc(N)nc(N)c3)nc21 (single isomer, unassigned) [Example 142]
14 | 0.176 µM | Cc1nc2ccc(-c3cc(N)nc(N)c3)nc2n1C[C@H](C)Oc1ccc(F)cn1 (single isomer, unassigned) [Example 178]
15 | 0.081 µM | Cc1nc2ccc(-c3cc(N)nc(N)c3)nc2n1C[C@@H](C)Oc1cccc(Br)n1 (single isomer, unassigned) [Example 181]
16 | 0.226 µM | Cc1nc2ccc(-c3cc(N)nc(N)c3)nc2n1C[C@@H](C)Oc1ncccc1Br (single isomer, unassigned) [Example 183]
17 | 0.165 µM | Cc1nc2ccc(-c3cc(N)nc(N)c3)nc2n1C[C@H](C)Oc1ccc(Cl)cn1 (single isomer, unassigned) [Example 184]
18 | 0.041 µM | Cc1nc2ccc(-c3cc(N)nc(N)c3)nc2n1C[C@@H](C)Oc1ccc(Cl)cn1 (single isomer, unassigned) [Example 185]
19 | 0.154 µM | Cc1nc2ccc(-c3cc(N)nc(N)c3)nc2n1C[C@H](C)Oc1ccc(Br)cn1 (single isomer, unassigned) [Example 186]
20 | 0.2 µM | Cc1nc2ccc(-c3cc(N)nc(N)c3)nc2n1C[C@@H](C)Oc1ncccc1Cl (single isomer, unassigned) [Example 191]
21 | 0.084 µM | Cc1nc2ccc(-c3cc(N)nc(N)c3)nc2n1C[C@H](C)Oc1nc(F)ccc1F (single isomer, unassigned) [Example 192]
22 | 0.028 µM | Cc1nc2ccc(-c3cc(N)nc(N)c3)nc2n1C[C@@H](C)Oc1nc(F)ccc1F (single isomer, unassigned) [Example 193]
